Residue numbers refer to the chain shown, from its start.
Columns and labels:
Conditions in all cases: SIN-1 500 μM 30 min
PKG-1α [1] = molecular target: T1, PKG-1α (Homo sapiens, UniProt Q13976); experiment: [3H]cGMP dissociation/exchange assay; format: binding
T1 construct: transfected with an expression plasmid containing a full length WT-PKG-1α cDNA; made in house; host or cells: HEK-293T (methods); the results paragraph b527 says PASMC
T1 sequence (Q13976 2-671): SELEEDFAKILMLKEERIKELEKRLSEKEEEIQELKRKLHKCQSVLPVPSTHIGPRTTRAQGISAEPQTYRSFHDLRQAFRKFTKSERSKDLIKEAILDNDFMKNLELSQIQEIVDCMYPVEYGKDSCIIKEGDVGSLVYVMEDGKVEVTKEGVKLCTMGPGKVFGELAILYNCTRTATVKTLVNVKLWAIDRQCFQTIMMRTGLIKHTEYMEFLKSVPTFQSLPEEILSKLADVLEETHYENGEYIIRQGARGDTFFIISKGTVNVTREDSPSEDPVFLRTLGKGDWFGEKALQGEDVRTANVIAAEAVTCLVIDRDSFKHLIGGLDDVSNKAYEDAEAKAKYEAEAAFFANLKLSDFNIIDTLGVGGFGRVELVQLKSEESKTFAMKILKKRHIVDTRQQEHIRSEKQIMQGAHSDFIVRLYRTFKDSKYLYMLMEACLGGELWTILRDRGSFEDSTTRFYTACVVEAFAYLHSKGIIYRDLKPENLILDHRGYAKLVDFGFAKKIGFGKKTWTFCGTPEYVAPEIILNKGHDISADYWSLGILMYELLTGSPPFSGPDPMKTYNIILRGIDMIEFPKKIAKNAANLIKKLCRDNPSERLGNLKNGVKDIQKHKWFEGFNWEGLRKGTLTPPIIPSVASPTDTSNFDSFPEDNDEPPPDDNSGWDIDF
Description: (§1) WT- and Y247F-PKG-1α were immunopurified, as described above then incubated for 60 min at room temperature with 3 ml of cGMP-binding assay mixture containing 3 μM [^3H]cGMP. This incubation time and dose has been previously experimentally determined to be adequate for the saturation of the cGMP-binding sites in PKG. After incubation, the samples were cooled to 4° C. and divided into 200 μl aliquots per tube. The addition of 100-fold excess unlabeled cGMP at time 0 sec (Bo) initiated the dissociation (exchange) of the bound [^3H]cGMP. The cGMP exchange in each tube was stopped at the appropriate time point by the addition of 2 ml of cold aqueous saturated (NH4)2SO4. The samples were filtered, washed, and the portion of bound [^3H]cGMP at any time point was determined, as described previously.

PKG-1α [2] = molecular target: T2, PKG-1α (Homo sapiens, UniProt Q13976, Y247F); experiment: [3H]cGMP dissociation/exchange assay; format: binding
T2 sequence (Q13976 2-671 Y247F): T1 sequence (Q13976 2-671) with Y246F
Description: as §1

PKG-1α [3] = experiment: PKG activity in transfected HEK-293T cells; format: cell-based, human
Description: To determine the role of tyrosine 247 and tyrosine 425 in mediating the nitration dependent inhibition of PKG-1α kinase activity, Y247F- and Y425F-PKG-1α mutants were generated and expressed in HEK-293T cells. HEK-293T cells were transiently transfected with expression plasmids containing WT-, Y247F-, or Y425F-PKG-1α for 48 h. Cells were also treated or not with SIN-1 (500 μM, 30 min). Protein extracts were immunoprecipitated using an antibody raised against PKG-1α and the level of nitrated PKG-1α determined by probing the membranes with an antiserum raised against 3-NT. The blots were then stripped and re-probed for PKG-1α to normalize for the efficiency of the immunoprecipitation.
Measurement of PKG Catalytic Activity Total PKG activity was determined using a non-radioactive immunoassay in cell lysates, according to the manufacturer's directions. […]
After incubation for 30 min at 30° C. to allow the phosphorylation of the bound substrate, an HRP conjugated anti-phosphothreonine specific antibody was added to convert a chromogenic substrate to a colorimetric substrate that was subsequently read spectrophotometrically at 450 nm. The change in absorbance reflected the relative activity of PKG in the sample. […] The kinetic constants were determined using nonlinear regression (curve fit) analysis (GraphPad Prism Software Inc).

- [3H]cGMP exchange/dissociation from WT-PKG-1α (PKG-1α [1]): enhanced
- [3H]cGMP exchange/dissociation from Y247F mutant (PKG-1α [2]): but not from the Y247F mutant
Substance: 3-morpholinosydnonimine N-ethylcarbamide [SIN-1]
- cGMP dependent PKG activity, WT- and Y425F-PKG-1α cells (PKG-1α [3]; HEK-293T expressing WT- and Y425F-PKG-1α): attenuated
- cGMP-independent PKG activity (PKG-1α [3]; transfected HEK-293T): did not alter

— patent US9447157B2, “Nitration shielding peptides and methods of use thereof” (Augusta University Research Institute, Inc., priority 2013, dated 2016)
